This is an account of results in patent US6828294B2, “High retention sanitizer systems” (FMC Corporation, priority 2001, dated 2004).

A short description of series [1]: Stability of PAA in compositions and in presence of chelators (PAA test strips). Particulars: for PAA present immediately after preparation of the solution / time after which no PAA was detectable: chelator plus 0.170 g of 5% PAA in 100 g DI water, PAA test strips. The method, then: A sanitizer composition containing 0.25% SLS, 0.05% LA, 0.125% magnesium sulfate, and 85 ppm PAA was prepared in the 300 ppm total hardness water described in Example 8. This solution was applied to a stainless steel cabinet (34.5 in.×72 in.) in the meat pilot plant with a FOAM-IT® 5 unit using the driest foam setting.
This Example illustrates the effect of chelating agent on sanitizer compositions. The amount of chelator added is intended to chelate a concentration of ions corresponding to 300 ppm hard water, which corresponds to 3 millimolar. Because water will often have a hardness of less than 300 ppm, leaving an excess of chelator, it is important to evaluate the stability of PAA with respect to the chelator. The excess chelator could cause increases in pH, which would decrease the amount of PAA present according to the reaction (Preparation, Properties, Reactions and Uses of Organic Peracids and their Salts, FMC Corporation, Inorganic Chemicals Division, New York, N.Y., 1964, p. 34):
Therefore, in anticipation of the worst case where soft water is used to prepare the solution from which the foam is generated, the stability of PAA in the presence of at least 3 millimolar of chelator was evaluated.
0.125 g of Na4EDTA and 0.170 g of 5% PAA were added to 100 g of DI water.
0.161 g of Na3EDTA and 0.170 g of 5% PAA were added to 100 g of DI water.
0.233 g of Na2EDTA and 0.170 g of 5% PAA were added to 100 g of DI water.

Another series is described as follows: pH of solutions. The class given is physicochemical. Particulars: chelator solutions in DI water in the absence of PAA, pH test paper.
Series [2] can be described thus: Turbidity of lauryl sulfate solutions in hard water (Example 8). It is filed as physicochemical. The method, then: When a 0.25% MLS solution was prepared in water containing 333 ppm of calcium chloride, the solution became turbid after about 2 min.
Hard water contains both magnesium and calcium ions. For a 300 ppm total hardness (expressed as calcium carbonate), there is about 200 ppm hardness as calcium and 100 ppm hardness as magnesium (AOAC Official Methods of Analysis, 1995, Chapter 6, p. 10). […] When 0.25% solution of MLS was prepared in 300 ppm total hardness water containing calcium and magnesium ions in this ratio, the solution became turbid after about 5 minutes.

The mark [3] stands for this setting: 0.25% solution in 300 ppm total hardness water containing calcium and magnesium ions.
[4] abbreviates: 0.25% solution in water containing 333 ppm of calcium chloride.

On to `O=P([O-])(O)CN(CCN(CCN(CP(=O)(O)O)CP(=O)(O)O)CP(=O)(O)O)CP(=O)(O)O.[Na+]` [DEQUEST 2066], for which, in series [1], the “stability of PAA in the presence of the chelator” value (“stability of PAA” for short) is “not found any chelator in salt form in which PAA is stable”. On to `CC(O)(P(=O)(O)O)P(=O)(O)O` [DEQUEST® 2010, 1-hydroxyethylidene-1,1-diphosphonic acid], for which the “stability of PAA” value in series [1] was “stable”. As for `O=C([O-])CN(CCN(CC(=O)[O-])CC(=O)O)CC(=O)O.[Na+].[Na+]` [Na2EDTA], in series [1], the “PAA present immediately after preparation of the solution” value (“PAA present immediately” below) is recorded as “at least 50 ppm” and the “time after which no PAA was detectable” value is roughly 10 min. Further, the pH in “pH of solutions” is 4. Regarding `O=C([O-])CN(CCN(CC(=O)[O-])CC(=O)O)CC(=O)[O-].[Na+].[Na+].[Na+]` [Na3EDTA], in series [1], the “PAA present immediately” value is listed as “at least 50 ppm” and the “time after which no PAA was detectable” value is roughly 5 min. Further, the pH in the series “pH of solutions” is 7.5. For `O=C([O-])CN(CCN(CC(=O)[O-])CC(=O)[O-])CC(=O)[O-].[Na+].[Na+].[Na+].[Na+]` [Na4EDTA], the “PAA present immediately” value in series [1] was “no PAA present”. The molecule further registered a pH in “pH of solutions” of 10. In the case of `CCCCCCCCCCCCOS(=O)(=O)[O-].[Na+]` [SLS, Sodium lauryl sulfate], the “time until solution became turbid” value is reported as “immediately became turbid” in series [2] (setting [3]) and “instantly became turbid” in series [2] (setting [4]). With `O=C([O-])CN(CCN(CC(=O)[O-])CC(=O)[O-])CCN(CC(=O)[O-])CC(=O)[O-].[Na+].[Na+].[Na+].[Na+].[Na+]` [pentasodium salt of diethylenetriaminepentaacetic acid], the “stability of PAA” value in series [1] is recorded as “not found any chelator in salt form in which PAA is stable”. Magnesium lauryl sulfate [MLS]: the results for the “time until solution became turbid” value in series [2] (setting [3]) and in series [2] (setting [4]) were “about 5 minutes” and “about 2 min”, respectively.

Take “sodium salts of diethylene triamine pentaacetic acid”: in series [1], the “stability of PAA” value is “rapidly decomposes”.
